Data on six compounds can be found in patent publication US5985926A, “Method for inhibiting intracellular viral replication” (Cell Therapeutics, Inc., priority 1997, dated 1999).

Molecules are shown by their SMILES. “Also recorded” adds a separate entry of the source. A value given as a limit tells only on which side of the number the result lay.

Data set [1] has as its system HIV-LTR promoter (tat transactivation) in 293-EBNA cells. The data set is described as follows: AP reporter gene expression from HIV-LTR promoter with tat expression vector, 293-EBNA cells. The class given is cell-based, HIV; human cells. The method in brief: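 293-EBNA cells were transiently co-transfected with an HIV-LTR-driven secreted placental alkaline phosphatase reporter and a tat(1–72) expression plasmid. At 24 h, the medium was switched to serum-free AIM V before compounds were added at various concentrations. Secreted AP activity was read colorimetrically at 405 nm 19–24 h later.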

In data set [2] the test system is CMV promoter in 293-EBNA cells. The data set is described as follows: AP reporter gene expression from CMV promoter, 293-EBNA cells stably transfected with pCMV.AP. It is filed as cell-based, human cytomegalovirus; human cells. As to conditions: Homo sapiens, 293-EBNA; FIG. 8; read-out: concentration inhibiting AP activity by 50% (CMV assay). How it is done:
An assay for measuring the anti-viral activity of the compounds involves testing the abilities of the compounds to inhibit gene expression directed by specific viral promoters in cell lines. Specifically, a plasmid construct, pCMV.AP, using the human cytomegalovirus (CMV) enhancer and promoter to direct the expression of the secreted human placental alkaline phosphatase reporter gene were transformed into a tumor cell line (e.g., 293-EBNA cells). The cultured cells were treated with various concentrations of the compounds. The expression of the alkaline phosphatase (AP) reporter gene in the individual cultures can then be measured by following the change in absorbance at A405 of the cell conditioned media in the presence of a suitable substrate (e.g., ortho-nitrophenol phosphate) (Berger et al., Gene 66:1,1988).
The construction of expression vectors for secreted placental alkaline phosphatase (sPAP) was performed by obtaining a mammalian episomal expression vector pBL3, derived from the plasmids pMEP4 and pCEP4 (Invitrogen Corp). Specifically, a 600 bp Spe I--Kpn I fragment spanning the CMV promoter from pCEP4 and a 9500 bp Xba I--Kpn I vector fragment from pMEP4 were isolated and ligated together to form pBL3. Full length sPAP cDNA was amplified by PCR using the plasmid pGEM4Z/SEAP (ATCC) as template with primers 5'-[…]-3' (SEQ ID NO. 1) and 5'-[…]-3' (SEQ ID NO. 2). The PCR product was then digested with Xba I and Sal I and inserted between the Nhe I site and the Xho I site within the multiple cloning region of pBL3. The resulting plasmid was designated as PCMV.AP.
On the technique in general: In a reporter assay the amount or activity of a reporter protein is the signal.

Data set [3] is described as follows: Viability of 293-EBNA cells, Alamar Blue. It is filed as cell-based, human. Conditions: human, 293-ebna cells; read-out: LD50 (CMV assay, FIG. 9). The protocol:
Cell viability was measured by a colorimetric assay that uses Alamar Blue dye (Alamar, Inc.) to report cell proliferation, viability and cytotoxicity. This vital dye indicates cell activity by serving as substrate for mitochrondrial dehydrogenases for the formation of soluble dyes which can be quantitated by determining the difference in absorbance between A570 and A600 using a plate reader.
Cell viability was measured by a […] assay that uses Alamar Blue dye (Alamar, Inc.) to report cell proliferation, viability and cytotoxicity. This vital dye indicates cell activity by serving as substrate for mitochrondrial dehydrogenases for the formation of soluble dyes which can be quantitated by determining the difference in absorbance between A570 and A600 using a plate reader.
This example illustrates that CT2576 suppressed both tat-dependent and TNF-α induced HIV-LTR transcription with an IC50 of approximately 10 μM. Study of the effects of CT2576 on cell toxicity was performed using the Alamar Blue™ dye (Alamar Biosciences) according to the manufacturer's instructions. CT2576 was not toxic to 293-EBNA cells at concentrations up to 35 μM. To show CT2576 can inhibit HIV expression, CT2576 was tested for the ability to block HIV p24 antigen expression in chronically or acutely infected cells. Specifically, CT2576 inhibited the TNF-α and IL-6 induced and the constitutive expression of HIV in the chronically infected U1 cells and in peripheral blood lymphocytes (PBL) freshly infected with a HIV strain from a clinical isolate with an IC50 of approximately 1 μM. Pharmacological inhibition of synthesis of selected PL may therefore be a novel therapeutic approach to suppression of HIV replication.
For orientation: The colour change of resazurin is a common sign of viable cells or microbes.

Data set [4] can be described thus: Viability of 293-EBNA cells (dye not stated). As to conditions: human.
Data set [5] relates to HIV-LTR promoter / tat protein. Conditions: through interaction with the tat protein; cited from earlier work.
The test system of data set [6] is LPAAT (lysophosphatidate acyl-CoA acyltransferase). The data set is described as follows: LPAAT inhibition in vitro. The class given is biochemical, mammalian. As to conditions: Lineweaver-Burke graph. The source says: The mammalian cell membrane associated enzyme lysophosphatidate acyl-CoA acyltransferase (LPAAT) catalyzes the transfer of acyl CoA from lysophosphatidic acid (lyso-PA) to phosphatidic acid (PA) species. Certain PA species function as lipid intermediates in cell activation and function directly as intracellular signaling molecules. PA is subsequently dephosphorylated to 1,2-sn diacylglycerol (DAG) via phosphatidate phosphohydrolase (PAH). The compounds that inhibit viral replication, gene expression and viral antigen release in infected cells also have decreased amounts of intracellular PA species that are formed in response to inflammatory cellular activation. […] Therefore, if PA derived from lyso-PA is an important intracellular signaling intermediate for TNF or IL-1 induced viral replication in virally-infectedcells, then inhibitors of PA formation will act to prevent progression of viral diseases by blocking cell signaling to stimulate virion formation.

Data set [7] concerns HIV-1 in U1 cells (constitutive expression). As to the kind of experiment: Constitutive HIV-1 p24 antigen expression in chronically infected U1 cells. The class given is cell-based, HIV-1; human cells. As to conditions: U1 cells plated at high density; in words. The protocol:
(§1) Another assay examined the effect of compounds on chronically HIV-1 infected U1 cells. A relatively high density of U1 cells at 10^4 cells/well were incubated in the absence or presence of compounds for 4 days. HIV-1 p24 antigen expression in the culture media was measured by using a ELISA kit (Abbott). Alternatively, U1 cells were plated at a relatively low density of 2×10^3 cell/well plus or minus TNF at 20 pg/ml and plus or minus compounds. The expression of HIV-1 p24 antigen in culture media was measured by ELISA four days later.
(§2) Stable cell lines 293tar, 293tat and 293tat2 were generated by transfections using conditions described in (Tate et al., FASEB J. 4:227-231, 1990) with the plasmid pHIV.AP alone or along with either pHIV.tat or pSV2tat72, respectively. The assay of HIV-1 p24 antigen expression in the chronically HIV-1-infected promonocytic line U1 after 4 days and in acutely infected peripheral blood lymphocytes (PBL) after 7 days were described (Peterson et al., J. Clin. Invest. 89:574-580, 1992, and Brighty et al., Proc Natl. Acad. Sci. USA 88:7802-7805, 1991).
(§3) This example illustrates that CT2576 inhibited both constitutive and cytokine-induced HIV expression in a chronically-infected U1 cell line. A chronically HIV-1 infected human promonocyte cell line, U1 (Poli et al., J. Exp. Med. 172:151-158, 1990), was used as a model to see if the inhibitory effect of CT2576 on HIV-LTR driven reporter gene expression could be extended to block HIV replication per se in infected cells. TNF-α and IL-6 have been reported to upregulate the expression of HIV-1 in U1 cells (Poli et al., Proc Natl. Acad. Sci. USA 91:108-112, 1994). U1 cells were plated onto 24-well microtiter plates to study the dose-response effect of CT2576 on the constitutive (10^4 cells/well), TNF-α or IL-6 mediated (2×10^3 cells/well) expression of HIV-1. CT2576 was capable of inhibiting the constitutive, the TNF-α mediated, as well as the IL-6 mediated expression of HIV in U1 cells with an IC50 value of less than 1 μM (FIG. 17).

The subject of data set [8] is HIV-1 in U1 cells (TNF-α mediated expression). The data set is described as follows: TNF-α-mediated HIV-1 p24 antigen expression in chronically infected U1 cells. It is filed as cell-based, HIV-1; human cells. As to conditions: U1 cells; in words. The protocol:
as §1, §2, §3

In data set [9] the test system is HIV in infected monocytic cells. The data set is described as follows: HIV replication, gene expression and p24 release in infected monocytic cells stimulated by TNF. The class given is cell-based. Conditions: TNF activation. The protocol:
as §1

Another data set concerns HIV infection. Conditions: cited from earlier work.
The test system of data set [10] is HIV in chronically infected cell lines. Conditions: cited from earlier work.
Data set [11] has as its system HIV-1 strain JR-CSF in PBL. As to the kind of experiment: HIV-1 p24 antigen expression in acutely infected peripheral blood lymphocytes (PBL). The class given is cell-based, HIV-1; human cells. As to conditions: Human immunodeficiency virus 1, Lymphocyte, clinical isolate. The protocol: FIG. 17 illustrates a dose response curves of CT2576 on constitutive, TNF-α, and IL-6-mediated expression of HIV-1 in a chronically infected U1 cell line (left Y-axis) and of CT3537 on HIV expression in PBL acutely infected with the JR-CSF primary isolate (right Y-axis). U1 cells were incubated for four days after the addition of CT2576 with or without TNF-α (20 pg/ml) or IL-6 (1 ng/ml). PBL were inoculated with HIV at 10 ng virus/10^6 cells/well and incubated with various concentrations of CT3537 for 7 days. Each data point represents the average expression levels of HIV-1 p24-antigen in the cell supernatants measured by ELISA from triplicate samples with error bar indicating the SD.
Stable cell lines 293tar, 293tat and 293tat2 were generated by transfections using conditions described in (Tate et al., FASEB J. 4:227-231, 1990) with the plasmid pHIV.AP alone or along with either pHIV.tat or pSV2tat72, respectively. The assay of HIV-1 p24 antigen expression in the chronically HIV-1-infected promonocytic line U1 after 4 days and in acutely infected peripheral blood lymphocytes (PBL) after 7 days were described (Peterson et al., J. Clin. Invest. 89:574-580, 1992, and Brighty et al., Proc Natl. Acad. Sci. USA 88:7802-7805, 1991). […]

Take `CCCCCCCCNCC(O)CCCCCCCCCn1c(=O)c2[nH]cnc2n(C)c1=O` (stereo not drawn) [CT1416, N-(11-octylamino-10-hydroxyundecyl)-3-methylxanthine]: the IC50 lay in the range of 1000 to 4000 nM in [1] (Homo sapiens, 293-EBNA, read-out: concentration inhibiting AP expression by 50%) and 2 to 6 µM in data set [2]. Also, the CC50 in data set [3] and in data set [4] was ~5 µM in each case. The “effect on cell viability / cytotoxicity” value in the data set with 293-EBNA cells was “some cytotoxicity”.
For the compound `CNC1=Nc2ccc(Cl)cc2C(c2ccc[nH]2)=NC1` [Ro 24-7429], in data set [5], the “block of HIV-LTR promoter transcription” value is recorded as “blocks HIV-LTR promoter transcription”.
On to `C[C@@H](O)CCCCn1c(=O)c2c(ncn2C)n(C)c1=O` [CT1501R, R-1-(5-hydroxyhexyl)-3,7-dimethylxanthine], for which the “mode of LPAAT inhibition” value in [6] is on record as “competitive inhibition”. Moreover, the “inhibition of AP expression (HIV-LTR promoter)” value in data set [1] (293-EBNA cells, HIV promoter, in words) is reported as “No appreciable inhibition of AP expression; also recorded: did not affect AP activity”. Moreover, in [7], the “suppression of constitutive HIV-1 expression (p24)” value was “suppressed constitutive HIV-1 expression”. In data set [8], the “suppression of TNFα-mediated HIV-1 expression (p24)” value is “suppressed HIV-1 expression”. The “antiviral activity in TNF-stimulated infected monocytic cells” value in data set [9] was “inhibiting HIV replication, gene expression and p24 release”. Moreover, the “effect on cell viability / cytotoxicity” value in the data set with 293-EBNA cells is “did not affect AP activity and cell viability significantly”.
`CCCCCCCCNCC(O)CCCCCCCCCN1C(=O)Cc2ccccc2C1=O` (stereo not drawn) [CT1115, N-(11-octylamino-10-hydroxyundecyl)homophthalimide]: in data set [2], the IC50 is 2 to 6 µM. The CC50 in data set [3] is ~5 µM.
Consider `Cc1cn([C@H]2C[C@H](N=[N+]=[N-])[C@@H](CO)O2)c(=O)[nH]c1=O` [AZT], for which the “progression of AIDS disease” value with HIV infection (asymptomatic patients, early stage HIV infection) is reported as “no delay in the progression of AIDS disease”. In addition, the “CD4+ T cell number” value with HIV infection (treatment versus placebo group) is reported as “consistently higher number of CD4^+ T cells”. The “activity on HIV replication in chronically infected cell lines” value in [10] is recorded as “not to be active”.
Turning to `CCCCCCCCN(CC(CCCCCCCCCn1c(=O)c2c(ncn2C)n(C)c1=O)OC(C)=O)C(C)=O` (stereo not drawn) [CT3537, 1-[11-(N-octylacetamido)-10-acetoxyundecyl]-3,7-dimethylxanthine], in data set [11], the IC50 was < 1000 nM.
